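All cell lines were grown in 96-well plates and treated with compound for 48 hours. GI50 marks 50% less growth. Definition used: TGI = concentration required for complete inhibition of growth.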
Legend:
Experiment in all cases: inhibition of tumour cell growth, NCI panel, 48 h
MOLT-4 leukemia = tested on: MOLT-4 leukemia
CAKI-1 renal = tested on: CAKI-1 renal
OVCAR-8 ovarian = tested on: OVCAR-8 ovarian
KM12 colon = tested on: KM12 colon
ACHN renal = tested on: ACHN renal
COLO 205 colon = tested on: COLO 205 colon
SNB-75 CNS = tested on: SNB-75 CNS
T-47D breast = tested on: T-47D breast
EKVX NSCLC = tested on: EKVX NSCLC
RPMI-8226 leukemia = tested on: RPMI-8226 leukemia
OVCAR-4 ovarian = tested on: OVCAR-4 ovarian
NCI-H226 lung = tested on: NCI-H226 lung
SN12C renal = tested on: SN12C renal
U251 CNS = tested on: U251 CNS
RXF 393 renal = tested on: RXF 393 renal
SF-295 CNS = tested on: SF-295 CNS
CCRF-CEM leukemia = tested on: CCRF-CEM leukemia
SK-OV-3 ovarian = tested on: SK-OV-3 ovarian
NCI-H23 lung = tested on: NCI-H23 lung
UACC-257 melanoma = tested on: UACC-257 melanoma
NCI-H522 lung = tested on: NCI-H522 lung
OVCAR-5 ovarian = tested on: OVCAR-5 ovarian
HCC-2998 colon = tested on: HCC-2998 colon
TK-10 renal = tested on: TK-10 renal
MDA-MB-231 breast = tested on: MDA-MB-231 breast
SK-MEL-5 melanoma = tested on: SK-MEL-5 melanoma
NCI/ADR-RES ovarian = tested on: NCI/ADR-RES ovarian

Which results are given for `Cc1cn2cc(-c3ccc4c(c3)CC(=O)N4)nc2s1`?
GI50 (MOLT-4 leukemia): 50.7 µM; TGI (MOLT-4 leukemia): > 100 µM; GI50 (CAKI-1 renal): > 100 µM; TGI (CAKI-1 renal): > 100 µM; GI50 (OVCAR-8 ovarian): > 100 µM; TGI (OVCAR-8 ovarian): > 100 µM; GI50 (KM12 colon): 44.2 µM; TGI (KM12 colon): > 100 µM; GI50 (ACHN renal): 49.7 µM; TGI (ACHN renal): > 100 µM; GI50 (COLO 205 colon): > 100 µM; TGI (COLO 205 colon): > 100 µM; GI50 (SNB-75 CNS): > 100 µM; TGI (SNB-75 CNS): > 100 µM; GI50 (T-47D breast): 43.4 µM; TGI (T-47D breast): > 100 µM; GI50 (EKVX NSCLC): 79.2 µM; TGI (EKVX NSCLC): > 100 µM; GI50 (RPMI-8226 leukemia): 35.9 µM; TGI (RPMI-8226 leukemia): > 100 µM; GI50 (OVCAR-4 ovarian): > 100 µM; TGI (OVCAR-4 ovarian): > 100 µM; GI50 (NCI-H226 lung): > 100 µM; TGI (NCI-H226 lung): > 100 µM; GI50 (SN12C renal): > 100 µM; TGI (SN12C renal): > 100 µM; GI50 (U251 CNS): > 100 µM; TGI (U251 CNS): > 100 µM; GI50 (RXF 393 renal): > 100 µM; TGI (RXF 393 renal): > 100 µM; GI50 (SF-295 CNS): > 100 µM; TGI (SF-295 CNS): > 100 µM; GI50 (CCRF-CEM leukemia): > 100 µM; TGI (CCRF-CEM leukemia): > 100 µM; GI50 (SK-OV-3 ovarian): > 100 µM; TGI (SK-OV-3 ovarian): > 100 µM; GI50 (NCI-H23 lung): > 100 µM; TGI (NCI-H23 lung): > 100 µM; GI50 (UACC-257 melanoma): > 100 µM; TGI (UACC-257 melanoma): > 100 µM; GI50 (NCI-H522 lung): 99.6 µM; TGI (NCI-H522 lung): > 100 µM; GI50 (OVCAR-5 ovarian): > 100 µM; TGI (OVCAR-5 ovarian): > 100 µM; GI50 (HCC-2998 colon): 46.2 µM; TGI (HCC-2998 colon): > 100 µM; GI50 (TK-10 renal): > 100 µM; TGI (TK-10 renal): > 100 µM; GI50 (MDA-MB-231 breast): > 100 µM; TGI (MDA-MB-231 breast): > 100 µM; GI50 (SK-MEL-5 melanoma): 94 µM; TGI (SK-MEL-5 melanoma): > 100 µM; GI50 (NCI/ADR-RES ovarian): > 100 µM; TGI (NCI/ADR-RES ovarian): > 100 µM
